For assay [1], the target named is T1, Farnesyl pyrophosphate synthase (Homo sapiens, UniProt P14324).
T1 sequence (P14324 whole entry): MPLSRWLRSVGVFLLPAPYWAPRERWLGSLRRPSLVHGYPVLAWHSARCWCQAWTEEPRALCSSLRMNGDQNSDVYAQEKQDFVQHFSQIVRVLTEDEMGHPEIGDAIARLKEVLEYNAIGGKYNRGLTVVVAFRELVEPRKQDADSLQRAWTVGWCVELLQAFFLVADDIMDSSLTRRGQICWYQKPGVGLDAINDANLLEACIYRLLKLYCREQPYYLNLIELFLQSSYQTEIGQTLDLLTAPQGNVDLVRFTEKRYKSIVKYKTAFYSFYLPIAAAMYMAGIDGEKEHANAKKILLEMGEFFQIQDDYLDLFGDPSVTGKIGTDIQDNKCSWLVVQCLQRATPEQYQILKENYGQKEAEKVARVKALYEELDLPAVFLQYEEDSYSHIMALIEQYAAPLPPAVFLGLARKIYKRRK
Description: Inhibition of human recombinant FPPS using IPP as substrate preincubated with enzyme for 15 mins followed by substrate addition and measured after 1 hr.

Assay [2] concerns Rattus norvegicus. Description: Anti-osteoporosis activity against ovariectomized Wistar rat assessed as inhibition of ovariectomy-induced osteoporosis by measuring reduction in serum RANKL level at 7.5 ug/kg, ip administered once a week for 8 weeks following bilateral ovariectomy. In kind it is functional, organism-based. As to conditions: dose 7.5 µg/kg.
Assay [3] has as its system Rattus norvegicus. Description: Anti-osteoporosis activity against ovariectomized Wistar rat assessed as inhibition of ovariectomy-induced osteoporosis by measuring increase in serum osteoclacin level at 7.5 ug/kg, ip administered once a week for 8 weeks following bilateral ovariectomy relative to ovariectomized control. The conditions noted are these: dose 7.5 µg/kg. In kind it is functional. More on the design: scale not given: the % may be the effect or the level left.

The test system of assay [4] is Rattus norvegicus. Nature of the assay: Anti-osteoporosis activity against ovariectomized Wistar rat assessed as inhibition of ovariectomy-induced osteoporosis by measuring decrease in bone-specific isoenzyme of alkaline phosphatase level in serum at 7.5 ug/kg, ip administered once a week for 8 weeks following bilateral ovariectomy. The assay is classed as functional, organism-based. As to conditions: dose 7.5 µg/kg.

The test system of assay [5] is Rattus norvegicus. Nature of the assay: Anti-osteoporosis activity against ovariectomized Wistar rat assessed as inhibition of ovariectomy-induced osteoporosis by measuring reduction in serum RANKL/OPG level at 7.5 ug/kg, ip administered once a week for 8 weeks following bilateral ovariectomy relative to ovariectomized control. The assay is classed as functional. As to conditions: 1344 h, dose 7.5 µg/kg.

In assay [6] the test system is Rattus norvegicus. Nature of the assay: Anti-osteoporosis activity against ovariectomized Wistar rat assessed as inhibition of ovariectomy-induced osteoporosis by measuring increase in serum OPG level at 7.5 ug/kg, ip administered once a week for 8 weeks following bilateral ovariectomy relative to ovariectomized control. The assay is classed as functional. On the set-up: scale not given: the % may be the effect or the level left. The conditions noted are these: dose 7.5 µg/kg.

Assay [7] relates to Rattus norvegicus. Description: Anti-osteoporosis activity against ovariectomized Wistar rat assessed as inhibition of ovariectomy-induced osteoporosis by measuring decrease in serum calcium level at 7.5 ug/kg, ip administered once a week for 8 weeks following bilateral ovariectomy. The assay is classed as functional, organism-based. The conditions noted are these: dose 7.5 µg/kg.

Assay [8] has as its system Rattus norvegicus. Nature of the assay: Anti-osteoporosis activity against ovariectomized Wistar rat assessed as inhibition of ovariectomy-induced osteoporosis by measuring decrease in serum phosphate level at 7.5 ug/kg, ip administered once a week for 8 weeks following bilateral ovariectomy. The assay is classed as functional, organism-based. As to conditions: dose 7.5 µg/kg.

For assay [9], the system named is Rattus norvegicus. Description: Anti-osteoporosis activity against ovariectomized Wistar rat assessed as inhibition of ovariectomy-induced osteoporosis by measuring decrease in urinary calcium level at 7.5 ug/kg, ip administered once a week for 8 weeks following bilateral ovariectomy. In kind it is functional, organism-based. As to conditions: dose 7.5 µg/kg.
Assay [10] concerns Rattus norvegicus. Description: Anti-osteoporosis activity against ovariectomized Wistar rat assessed as inhibition of ovariectomy-induced osteoporosis by measuring decrease in urinary phosphate level at 7.5 ug/kg, ip administered once a week for 8 weeks following bilateral ovariectomy. In kind it is functional, organism-based. As to conditions: dose 7.5 µg/kg.
For assay [11], the system named is Rattus norvegicus. Description: Anti-osteoporosis activity against ovariectomized Wistar rat assessed as inhibition of ovariectomy-induced osteoporosis by measuring serum estradiol level at 7.5 ug/kg, ip administered once a week for 8 weeks following bilateral ovariectomy. The assay is classed as functional, organism-based. As to conditions: dose 7.5 µg/kg.
The subject of assay [12] is Rattus norvegicus. Description: Anti-osteoporosis activity against ovariectomized Wistar rat assessed as inhibition of ovariectomy-induced osteoporosis by measuring reduction in serum RANKL level at 0.1 to 10 mg/kg, po administered daily for 8 weeks following bilateral ovariectomy. The conditions noted are these: dose 0.1-10 mg/kg. In kind it is functional, organism-based.

The subject of assay [13] is Rattus norvegicus. Description: Anti-osteoporosis activity against ovariectomized Wistar rat assessed as inhibition of ovariectomy-induced osteoporosis by measuring fold increase in serum osteoclacin level at 1 to 10 mg/kg, po administered daily for 8 weeks following bilateral ovariectomy relative to ovariectomized control. In kind it is functional. The conditions noted are these: dose 1-10 mg/kg.

Assay [14] deals with Rattus norvegicus. Description: Anti-osteoporosis activity against ovariectomized Wistar rat assessed as inhibition of ovariectomy-induced osteoporosis by measuring serum estradiol level at 0.1 to 10 mg/kg, po administered daily for 8 weeks following bilateral ovariectomy. In kind it is functional, organism-based. The conditions noted are these: dose 0.1-10 mg/kg.
In assay [15] the test system is Rattus norvegicus. Description: Anti-osteoporosis activity against ovariectomized Wistar rat assessed as inhibition of ovariectomy-induced osteoporosis by measuring decrease in bone-specific isoenzyme of alkaline phosphatase level in serum at 10 mg/kg, po administered daily for 8 weeks following bilateral ovariectomy relative to control. The assay is classed as functional. The conditions noted are these: 1344 h.

Assay [16] relates to Rattus norvegicus. Nature of the assay: Anti-osteoporosis activity against ovariectomized Wistar rat assessed as inhibition of ovariectomy-induced osteoporosis by measuring reduction in serum RANKL/OPG level at 10 mg/kg, po administered daily for 8 weeks following bilateral ovariectomy relative to ovariectomized control. In kind it is functional. As to conditions: 1344 h.
Assay [17] concerns Rattus norvegicus. Nature of the assay: Anti-osteoporosis activity against ovariectomized Wistar rat assessed as inhibition of ovariectomy-induced osteoporosis by measuring increase in serum OPG level at 10 mg/kg, po administered daily for 8 weeks following bilateral ovariectomy relative to ovariectomized control. The assay is classed as functional. On the set-up: scale not given: the % may be the effect or the level left.

Assay [18] relates to Rattus norvegicus. Nature of the assay: Anti-osteoporosis activity against ovariectomized Wistar rat assessed as inhibition of ovariectomy-induced osteoporosis by measuring decrease in urinary calcium level at 1 mg/kg, po administered daily for 8 weeks following bilateral ovariectomy. The assay is classed as functional, organism-based.
Assay [19] concerns Rattus norvegicus. Nature of the assay: Anti-osteoporosis activity against ovariectomized Wistar rat assessed as inhibition of ovariectomy-induced osteoporosis by measuring decrease in serum phosphate level at 1 mg/kg, po administered daily for 8 weeks following bilateral ovariectomy. The assay is classed as functional, organism-based.
Assay [20] concerns Rattus norvegicus. Nature of the assay: Anti-osteoporosis activity against ovariectomized Wistar rat assessed as inhibition of ovariectomy-induced osteoporosis by measuring decrease in urinary phosphate level at 0.1 to 10 mg/kg, po administered daily for 8 weeks following bilateral ovariectomy. In kind it is functional, organism-based. The conditions noted are these: dose 0.1-10 mg/kg.

The subject of assay [21] is Rattus norvegicus. Nature of the assay: Anti-osteoporosis activity against ovariectomized Wistar rat assessed as inhibition of ovariectomy-induced osteoporosis by measuring increase in bone mineral content at 10 mg/kg, po administered daily for 8 weeks following bilateral ovariectomy. In kind it is functional, organism-based.
For assay [22], the system named is Rattus norvegicus. Description: Anti-osteoporosis activity against ovariectomized Wistar rat assessed as inhibition of ovariectomy-induced osteoporosis by measuring increase in bone mineral density at 1 mg/kg, po administered daily for 8 weeks following bilateral ovariectomy. The assay is classed as functional, organism-based.

Active and inactive are the calls of the source. The calls are words filed in the database; no cut-off is given here.

As for `COc1cc(C(O)P(=O)(OC)OC)ccc1OCCOc1ccc(C(O)P(=O)(OC)OC)cc1OC` (stereo unspecified), the IC50 in [1] was 21.4 µM.
On the same count and under the same terms, next, `COc1cc(C(O)P(=O)(N(C)C)N(C)C)ccc1OCCOc1ccc(C(O)P(=O)(N(C)C)N(C)C)cc1OC` (stereo unspecified): 5.54 µM; `COc1cc(/C=C/C#N)ccc1OCCOc1ccc(/C=C/C#N)cc1OC`: 3.22 µM.
In the case of `O=P(O)(O)C(O)(Cn1ccnc1)P(=O)(O)O` [ZOLEDRONIC ACID ANHYDROUS], the outcome in the assay with Rattus norvegicus [2], with Rattus norvegicus [9] and in the assay on Rattus norvegicus [11] was inactive. In addition, the figures for the Activity in the assay with Rattus norvegicus [3] and in the assay with Rattus norvegicus [6] were 174% and 46%, respectively. The outcome in the assay with Rattus norvegicus [4], with Rattus norvegicus [7], in the assay on Rattus norvegicus [8] and in the assay with Rattus norvegicus [10] was Active. Also, the inhibition in vivo at 0.0075 mg/kg in the assay on Rattus norvegicus [5] amounted to 38%.
Turning to `COC(=O)/C=C/c1ccc(OCCOc2ccc(/C=C/C(=O)OC)cc2OC)c(OC)c1`, the 50% inhibitory concentration (IC50) in assay [1] is 1.24 µM.
Same read-out and setting: under `COc1cc(C=O)ccc1OCCOc1ccc(C=O)cc1OC` stands 12.6 µM; under `COc1cc(C2SP(=S)(Sc3ccccc3)S2)ccc1OCCOc1ccc(C2SP(=S)(Sc3ccccc3)S2)cc1OC` (stereo unspecified), 3.37 µM.
In the case of `COc1cc(/C=C/C(C)=O)ccc1OCCOc1ccc(/C=C/C(C)=O)cc1OC`, the outcome with Rattus norvegicus [12] and with Rattus norvegicus [14] was inactive. The IC50 in assay [1] came out at 1.11 µM. In the assay on Rattus norvegicus [13], the “fold change (FC)” value turned out to be 2. Besides, the values for the inhibition in vivo at 10 mg/kg in the assay on Rattus norvegicus [15] and in the assay with Rattus norvegicus [16] were 33% and 33.3%, respectively. The Activity in the assay on Rattus norvegicus [17] is 29%. Besides, the result with Rattus norvegicus [18], in the assay with Rattus norvegicus [19], with Rattus norvegicus [20], with Rattus norvegicus [21] and in the assay with Rattus norvegicus [22] was Active.
Take `CCOC(=O)/C=C/c1ccc(OCCOc2ccc(/C=C/C(=O)OCC)cc2OC)c(OC)c1`: the IC50 in [1] turned out to be 5.98 µM.
On the same count and under the same terms, under `COc1cc(C=S)ccc1OCCOc1ccc(C=S)cc1OC` stands 22.7 µM; under `CCN(CC)P(=O)(C(O)c1ccc(OCCOc2ccc(C(O)P(=O)(N(CC)CC)N(CC)CC)cc2OC)c(OC)c1)N(CC)CC` (stereo unspecified), 2.47 µM.
